# From PMC4344207 (PLoS ONE, 2015)
# B1: trypsin inhibitor (soybean): soybean trypsin inhibitor (protein, UniProt P01070 25-205, looked up)
# Trypsin inhibitor A: DFVLDNEGNPLENGGTYYILSDITAFGGIRAAPTGNERCPLTVVQSRNELDKGIGTIISSPYRIRFIAEGHPLSLKFDSFAVIMLCVGIPTEWSVVEDLPEGPAVKIGENKDAMDGWFRLERVSDDEFNNYKLVFCPQQAEDDKCGDIGISIDHDDGTRRLVVSKNKPLVVQFQKLDKESL
# Tested on: exendin-4 degradation in rat liver homogenate
# Test: Inhibition of exendin-4 metabolism by protease inhibitors in rat liver homogenate
# Assay type: biochemical
# Settings: not given
row,Molecule,"percentage inhibition of exendin-4 degradation, liver"
1,NC(N)=NCCC[C@H](NC(=O)[C@@H]1CCCN1C(=O)[C@H](N)Cc1ccccc1)C(=O)CCl [PPACK],no effect
2,"O=S(=O)(F)Cc1ccccc1 [PMSF, phenylmethylsulfonyl fluoride]",65%
3,"CCN1C(=O)C=CC1=O [NEM, N-ethylmaleimide]",not inhibited
4,C[C@H](CS)C(=O)N1CCC[C@H]1C(=O)O [captopril],not inhibited
5,CC(C)C[C@@H](N)[C@H](O)C(=O)N[C@H](C(=O)N[C@H](C(=O)N[C@@H](CC(=O)O)C(=O)O)C(C)C)C(C)C [amastatin],13.2%
6,CC(C)C[C@H](NC(=O)[C@@H](O)[C@H](N)Cc1ccccc1)C(=O)O [bestatin],48%
7,"c1cnc2c(c1)ccc1cccnc12 [1,10-phenanthroline]",> 77%
8,B1,20%

# Same assay, conditions: rat liver homogenate, inhibitor pre-incubated 10 min at 37°C, then exendin-4 10 μM for 60 min; NEM 10 mM, phenanthroline 2 mM, PPACK 210 μM, soybean 1 mg/mL, DL-thiorphan 2 mM, captopril 30 μM, DFP 10 mM, PMSF 1 mM, amastatin 100 μM, bestatin 2 mM; LC-ESI-MS; n = 3
row,Molecule,"percentage inhibition of exendin-4 degradation, liver"
1,O=C(O)CNC(=O)C(CS)Cc1ccccc1 (racemic) [DL-thiorphan],no effect

# Tested on: plasma dipeptidyl peptidase-IV (DPP-IV)
# Test: not given
# Settings: circulating GLP-1, rat and human plasma DPP-IV; cited from earlier work
# From the text: (§1) In 2003, the International Diabetes Federation (IDF) estimated that almost 200 million people around the world had diabetes mellitus (DM). Approximately 90–95% of people with DM have type 2 diabetes mellitus (T2DM), which is characterized by hyperglycemia, insulin resistance, absolute or relative insulin deficiency, hyperglucagonemia, and increased hepatic glucose production. An optimal therapy for controlling the circulating glucose levels has not been established, and many currently available therapies are associated with unfavorable side effects, which limit their use. […] Although naturally resist ...
row,Molecule,cleavage by rat and human plasma DPP-IV
1,glucagon-like peptide 1 [GLP-1],rapid proteolytic cleavage

# Tested on: not given
# Test: not given
# Settings: humans, biologically active GLP-1; cited from earlier work
# From the text: as §1
row,Molecule,apparent serum half-life [min]
1,glucagon-like peptide 1 [GLP-1],1 to 2

# Tested on: exendin-4 degradation in rat kidney homogenate
# Test: Inhibition of exendin-4 metabolism by protease inhibitors in rat kidney homogenate
# Assay type: biochemical
# Settings: not given
row,Molecule,"percentage inhibition of exendin-4 degradation, kidney"
1,NC(N)=NCCC[C@H](NC(=O)[C@@H]1CCCN1C(=O)[C@H](N)Cc1ccccc1)C(=O)CCl [PPACK],41%
2,"O=S(=O)(F)Cc1ccccc1 [PMSF, phenylmethylsulfonyl fluoride]",18%
3,"CCN1C(=O)C=CC1=O [NEM, N-ethylmaleimide]",not inhibited
4,C[C@H](CS)C(=O)N1CCC[C@H]1C(=O)O [captopril],not inhibited
5,CC(C)C[C@@H](N)[C@H](O)C(=O)N[C@H](C(=O)N[C@H](C(=O)N[C@@H](CC(=O)O)C(=O)O)C(C)C)C(C)C [amastatin],32%
6,CC(C)C[C@H](NC(=O)[C@@H](O)[C@H](N)Cc1ccccc1)C(=O)O [bestatin],11%
7,"c1cnc2c(c1)ccc1cccnc12 [1,10-phenanthroline]",> 77%
8,B1,no effect

# Same assay, conditions: rat kidney homogenate, inhibitor pre-incubated 10 min at 37°C, then exendin-4 10 μM for 30 min; NEM 10 mM, phenanthroline 2 mM, PPACK 210 μM, soybean 1 mg/mL, DL-thiorphan 2 mM, captopril 30 μM, DFP 10 mM, PMSF 1 mM, amastatin 100 μM, bestatin 2 mM; LC-ESI-MS; n = 3
row,Molecule,"percentage inhibition of exendin-4 degradation, kidney [%]"
1,O=C(O)CNC(=O)C(CS)Cc1ccccc1 (racemic) [DL-thiorphan],73
